Laboratory results: publication PMC9864331, “Biosynthesis of α-Bisabolol by Farnesyl Diphosphate Synthase and α-Bisabolol Synthase and Their Related Transcription Factors in Matricaria recutita L” (International Journal of Molecular Sciences, 2023)

Molecular target: T1, MrBBS (Matricaria chamomilla, UniProt A0A0A0RIB3)
T1 construct: pCold TF (trigger factor) fusion, E. coli BL21(DE3) pLysS; assayed as crude enzyme
T1 sequence (A0A0A0RIB3 1-572): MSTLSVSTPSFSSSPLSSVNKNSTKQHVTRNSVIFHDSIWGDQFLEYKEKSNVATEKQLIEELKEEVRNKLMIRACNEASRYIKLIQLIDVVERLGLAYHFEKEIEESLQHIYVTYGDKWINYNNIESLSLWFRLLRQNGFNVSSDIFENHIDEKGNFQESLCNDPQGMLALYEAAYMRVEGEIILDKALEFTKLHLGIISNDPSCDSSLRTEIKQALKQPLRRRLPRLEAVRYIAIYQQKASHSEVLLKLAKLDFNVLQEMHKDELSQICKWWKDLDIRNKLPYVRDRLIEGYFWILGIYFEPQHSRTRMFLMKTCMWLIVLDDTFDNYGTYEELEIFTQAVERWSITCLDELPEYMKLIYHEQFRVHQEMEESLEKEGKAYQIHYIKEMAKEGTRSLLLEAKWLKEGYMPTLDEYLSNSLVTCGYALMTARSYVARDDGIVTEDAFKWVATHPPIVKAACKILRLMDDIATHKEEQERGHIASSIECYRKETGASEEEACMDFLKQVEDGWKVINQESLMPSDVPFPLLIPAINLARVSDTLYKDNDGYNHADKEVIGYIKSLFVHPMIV
Test: GC-MS of hexane-extracted products
Type: biochemical
Settings: 100 µM FPP; 50 mM Tris-HCl pH 7.5; 10 mM MgCl2; 20 µg crude enzyme; product alpha-bisabolol

## CC(C)=CCC/C(C)=C/CC/C(C)=C/COP(=O)(O)OP(=O)(O)O [FPP]
  GC-MS of hexane-extracted products: MrBBS catalyzed the conversion of FPP into α-bisabolol
